According to patent US20260092071A1, “COMPOUNDS AND COMPOSITIONS AS SMARCA2/4 DEGRADERS AND USES THEREOF” (REGENTS OF THE UNIVERSITY OF MICHIGAN, priority 2022, published 2026):

Key:
[1] = biological target: SMARCA4 (Homo sapiens, UniProt P51532); test: HiBit assay in engineered HT1080 CRISPR knock-in cell, 6 hrs (B series), SMARCA4; assay type: cell-based; conditions: 6 hrs incubation; for DC50: HT1080 CRISPR knock-in cells, read-out: SMARC A4 HT1080 HiBit DC50; for Dmax: HT-1080, HT1080 CRISPR knock-in cells, read-out: SMARC A4 HT1080 HiBit Dmax(%)
How it was run: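 Engineered HT1080 knock-in cells, 2000 cells/well, 6 hrs compound exposure, 37° C/5% CO2, 0.1% DMSO final. Lytic detection: LgBiT 1:100 plus HiBiT substrate 1:50 in lytic buffer, 10 min shake at RT, luminescence read.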

[2] = biological target: SMARCA2 (Homo sapiens, UniProt P51531); test: HiBit assay in engineered HT1080 CRISPR knock-in cell, 6 hrs (B series), SMARCA2; assay type: cell-based; conditions: 6 hrs incubation; for DC50: HT1080 CRISPR knock-in cells, read-out: SMARC A2 HT1080 HiBit DC50; for Dmax: HT-1080, HT1080 CRISPR knock-in cells, read-out: SMARC A2 HT1080 HiBit Dmax (%)
How it was run: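 Using a 6 hr treatment window at 37° C and 5% CO2, tagged HT1080 knock-in cells were exposed to test compounds with DMSO vehicle held at 0.1%. Signal came from lytic LgBiT/substrate reagent added after incubation, with control wells lacking LgBiT, and was read as luminescence.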

Sequence of SMARCA4 (P51532 whole entry): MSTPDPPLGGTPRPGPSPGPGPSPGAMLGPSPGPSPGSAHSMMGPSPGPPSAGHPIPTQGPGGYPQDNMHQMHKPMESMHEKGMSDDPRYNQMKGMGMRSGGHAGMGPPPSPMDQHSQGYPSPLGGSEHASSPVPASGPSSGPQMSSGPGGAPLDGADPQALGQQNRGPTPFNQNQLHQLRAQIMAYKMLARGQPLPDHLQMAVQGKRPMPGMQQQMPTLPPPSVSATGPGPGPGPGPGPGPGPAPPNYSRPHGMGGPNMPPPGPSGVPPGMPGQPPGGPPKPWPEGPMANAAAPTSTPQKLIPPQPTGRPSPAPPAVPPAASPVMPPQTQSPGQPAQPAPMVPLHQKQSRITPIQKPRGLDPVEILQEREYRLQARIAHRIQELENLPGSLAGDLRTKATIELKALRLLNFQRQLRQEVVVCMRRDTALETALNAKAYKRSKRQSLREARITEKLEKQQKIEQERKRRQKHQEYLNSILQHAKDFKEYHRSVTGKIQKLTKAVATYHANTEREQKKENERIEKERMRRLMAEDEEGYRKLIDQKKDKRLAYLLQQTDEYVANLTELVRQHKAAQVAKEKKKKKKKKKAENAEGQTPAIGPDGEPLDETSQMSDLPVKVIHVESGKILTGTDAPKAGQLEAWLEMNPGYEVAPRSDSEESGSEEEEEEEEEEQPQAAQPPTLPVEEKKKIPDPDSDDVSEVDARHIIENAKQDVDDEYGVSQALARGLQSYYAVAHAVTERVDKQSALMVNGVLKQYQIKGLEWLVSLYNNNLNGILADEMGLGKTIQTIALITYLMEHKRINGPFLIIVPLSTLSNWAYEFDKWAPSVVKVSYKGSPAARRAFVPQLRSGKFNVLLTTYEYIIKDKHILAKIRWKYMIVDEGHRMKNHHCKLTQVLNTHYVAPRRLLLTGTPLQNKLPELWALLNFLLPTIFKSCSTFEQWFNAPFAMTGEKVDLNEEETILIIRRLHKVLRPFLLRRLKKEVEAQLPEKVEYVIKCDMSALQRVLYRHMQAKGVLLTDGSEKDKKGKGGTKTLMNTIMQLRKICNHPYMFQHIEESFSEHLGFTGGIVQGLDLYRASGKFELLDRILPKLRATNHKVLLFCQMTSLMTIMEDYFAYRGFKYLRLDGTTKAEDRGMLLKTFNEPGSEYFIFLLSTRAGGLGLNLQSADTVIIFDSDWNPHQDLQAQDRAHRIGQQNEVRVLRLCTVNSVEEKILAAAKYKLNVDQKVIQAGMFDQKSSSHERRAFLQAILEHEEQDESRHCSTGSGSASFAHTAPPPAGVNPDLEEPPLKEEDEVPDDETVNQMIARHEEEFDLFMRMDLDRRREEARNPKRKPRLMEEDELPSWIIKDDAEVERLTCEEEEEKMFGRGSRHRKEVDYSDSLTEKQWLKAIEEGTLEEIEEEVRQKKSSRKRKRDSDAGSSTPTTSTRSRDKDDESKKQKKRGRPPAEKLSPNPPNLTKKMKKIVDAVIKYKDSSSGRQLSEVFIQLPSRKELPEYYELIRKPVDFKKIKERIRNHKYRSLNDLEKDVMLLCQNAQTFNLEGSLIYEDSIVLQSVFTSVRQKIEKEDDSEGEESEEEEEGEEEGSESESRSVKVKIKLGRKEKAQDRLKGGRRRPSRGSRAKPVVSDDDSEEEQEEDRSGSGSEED
Sequence of SMARCA2 (P51531 whole entry): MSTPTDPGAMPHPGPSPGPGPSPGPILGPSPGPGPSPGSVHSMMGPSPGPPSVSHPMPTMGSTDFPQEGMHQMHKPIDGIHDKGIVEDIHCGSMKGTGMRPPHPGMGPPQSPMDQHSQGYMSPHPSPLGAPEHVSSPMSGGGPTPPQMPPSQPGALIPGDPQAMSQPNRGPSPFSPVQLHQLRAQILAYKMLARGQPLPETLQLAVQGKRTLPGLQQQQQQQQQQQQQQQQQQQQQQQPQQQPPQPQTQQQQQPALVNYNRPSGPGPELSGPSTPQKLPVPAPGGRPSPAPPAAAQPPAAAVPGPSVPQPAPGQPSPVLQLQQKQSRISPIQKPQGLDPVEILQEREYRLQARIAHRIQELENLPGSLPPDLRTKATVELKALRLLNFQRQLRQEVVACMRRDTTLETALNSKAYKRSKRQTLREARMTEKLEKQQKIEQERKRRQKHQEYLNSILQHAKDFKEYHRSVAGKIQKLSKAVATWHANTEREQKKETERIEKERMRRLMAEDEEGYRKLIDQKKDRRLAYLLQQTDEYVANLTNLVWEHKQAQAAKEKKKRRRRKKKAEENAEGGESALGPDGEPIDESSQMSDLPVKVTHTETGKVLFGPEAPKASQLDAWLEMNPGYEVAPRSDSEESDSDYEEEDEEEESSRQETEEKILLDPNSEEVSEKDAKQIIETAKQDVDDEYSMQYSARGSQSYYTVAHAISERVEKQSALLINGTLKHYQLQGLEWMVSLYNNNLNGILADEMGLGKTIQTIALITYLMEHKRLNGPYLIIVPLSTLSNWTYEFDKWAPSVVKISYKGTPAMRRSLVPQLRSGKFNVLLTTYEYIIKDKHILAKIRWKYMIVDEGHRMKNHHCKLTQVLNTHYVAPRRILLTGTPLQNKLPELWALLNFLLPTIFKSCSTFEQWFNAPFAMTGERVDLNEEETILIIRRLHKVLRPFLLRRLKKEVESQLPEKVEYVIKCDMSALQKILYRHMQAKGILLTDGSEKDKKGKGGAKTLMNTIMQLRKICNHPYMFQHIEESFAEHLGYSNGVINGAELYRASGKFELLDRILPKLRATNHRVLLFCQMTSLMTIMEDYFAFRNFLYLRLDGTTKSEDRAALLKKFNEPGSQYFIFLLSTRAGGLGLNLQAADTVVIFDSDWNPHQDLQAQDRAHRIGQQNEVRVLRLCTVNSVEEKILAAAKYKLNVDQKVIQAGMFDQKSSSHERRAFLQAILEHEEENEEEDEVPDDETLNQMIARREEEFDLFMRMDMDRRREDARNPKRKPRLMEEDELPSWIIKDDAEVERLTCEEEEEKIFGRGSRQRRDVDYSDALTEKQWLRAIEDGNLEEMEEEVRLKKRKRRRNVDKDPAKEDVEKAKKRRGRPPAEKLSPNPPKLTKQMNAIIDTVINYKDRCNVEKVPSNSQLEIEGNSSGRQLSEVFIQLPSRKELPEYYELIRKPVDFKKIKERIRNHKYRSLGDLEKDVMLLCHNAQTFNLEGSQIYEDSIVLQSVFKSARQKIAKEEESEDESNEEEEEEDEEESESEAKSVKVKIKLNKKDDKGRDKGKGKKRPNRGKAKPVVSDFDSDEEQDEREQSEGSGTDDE

| SMILES | DC50 [1] | Dmax [1] | DC50 [2] | Dmax [2] |
| --- | --- | --- | --- | --- |
| Cc1ncsc1-c1ccc([C@H](CN2CCOCC2)NC(=O)[C@@H]2C[C@@H](O)CN2C(=O)[C@@H](n2cc([C@H]3CC[C@H](S(=O)(=O)N4CCC(c5ccc6c(c5)-n5c(nc(=O)c7c(Cl)cccc75)C65CCCCC5)CC4)CC3)nn2)C(C)(C)C)cc1 [Compound B118, (2S,4R)-1-((S)-2-(4-((1r,4S)-4-((4-(4′-chloro-5′-oxo-5′H-spiro[cyclohexane-1,7′-indolo[1,2-a]quinazolin]-10′-yl)piperidin-1-yl)sulfonyl)cyclohexyl)-1H-1,2,3-triazol-1-yl)-3,3-dimethylbutanoyl)-4-hydroxy-N-((R)-1-(4-(4-methylthiazol-5-yl)phenyl)-2-morpholinoethyl)pyrrolidine-2-carboxamide] | 501 to 1000 nM | 50 to 69% | < 100 nM | 70 to 90% |
| Cc1ncsc1-c1ccc([C@H](C)NC(=O)[C@@H]2C[C@@H](O)CN2C(=O)[C@@H](n2cc(-c3cccc(CN4CCC(c5ccc6c(c5)-n5c(nc(=O)c7c(Cl)cccc75)C6(C)C)CC4)c3)nn2)C(C)(C)C)cc1 [Compound B119, (2S,4R)-1-((S)-2-(4-(3-((4-(4-chloro-7,7-dimethyl-5-oxo-5,7-dihydroindolo[1,2-a]quinazolin-10-yl)piperidin-1-yl)methyl)phenyl)-1H-1,2,3-triazol-1-yl)-3,3-dimethylbutanoyl)-4-hydroxy-N-((S)-1-(4-(4-methylthiazol-5-yl)phenyl)ethyl)pyrrolidine-2-carboxamide] | < 100 nM | > 90% | < 100 nM | > 90% |
| Cc1ncsc1-c1ccc([C@H](C)NC(=O)[C@@H]2C[C@@H](O)CN2C(=O)[C@H](C(C)C)n2cc([C@H]3CC[C@H](CN4CCN(c5ccc6c(c5)-n5c(nc(=O)c7c(Cl)cccc75)C6(C)C)CC4)CC3)nn2)cc1 [Compound B120, (2S,4R)-1-((S)-2-(4-((1r,4S)-4-((4-(4-chloro-7,7-dimethyl-5-oxo-5,7-dihydroindolo[1,2-a]quinazolin-10-yl)piperazin-1-yl)methyl)cyclohexyl)-1H-1,2,3-triazol-1-yl)-3-methylbutanoyl)-4-hydroxy-N-((S)-1-(4-(4-methylthiazol-5-yl)phenyl)ethyl)pyrrolidine-2-carboxamide] | < 100 nM | 70 to 90% | < 100 nM | > 90% |
| Cc1ncsc1-c1ccc([C@H](C)NC(=O)[C@@H]2C[C@@H](O)CN2C(=O)[C@@H](n2cc([C@H]3CC[C@H](CN4CCN(c5ccc6c(c5)-n5c(nc(=O)c7c(Cl)cccc75)C6(C)C)CC4)CC3)nn2)C(C)(C)C)cc1 [Compound B121, (2S,4R)-1-((S)-2-(4-((1r,4S)-4-((4-(4-chloro-7,7-dimethyl-5-oxo-5,7-dihydroindolo[1,2-a]quinazolin-10-yl)piperazin-1-yl)methyl)cyclohexyl)-1H-1,2,3-triazol-1-yl)-3,3-dimethylbutanoyl)-4-hydroxy-N-((S)-1-(4-(4-methylthiazol-5-yl)phenyl)ethyl)pyrrolidine-2-carboxamide] | < 100 nM | 70 to 90% | < 100 nM | > 90% |
| Cc1ncsc1-c1ccc2c(c1)CC[C@H]2NC(=O)[C@@H]1C[C@@H](O)CN1C(=O)[C@@H](n1cc([C@H]2CC[C@H](CN3CCC(c4ccc5c(c4)-n4c(nc(=O)c6c(Cl)cccc64)C5(C)C)CC3)CC2)nn1)C(C)(C)C [Compound B122, (2S,4R)-1-((S)-2-(4-((1r,4S)-4-((4-(4-chloro-7,7-dimethyl-5-oxo-5,7-dihydroindolo[1,2-a]quinazolin-10-yl)piperidin-1-yl)methyl)cyclohexyl)-1H-1,2,3-triazol-1-yl)-3,3-dimethylbutanoyl)-4-hydroxy-N-((R)-5-(4-methylthiazol-5-yl)-2,3-dihydro-1H-inden-1-yl)pyrrolidine-2-carboxamide] | 100 to 500 nM | < 50% | 100 to 500 nM | 70 to 90% |
| Cc1ncsc1-c1ccc2c(c1)CC[C@@H]2NC(=O)[C@@H]1C[C@@H](O)CN1C(=O)[C@@H](n1cc([C@H]2CC[C@H](CN3CCC(c4ccc5c(c4)-n4c(nc(=O)c6c(Cl)cccc64)C5(C)C)CC3)CC2)nn1)C(C)(C)C [Compound B123, (2S,4R)-1-((S)-2-(4-((1r,4S)-4-((4-(4-chloro-7,7-dimethyl-5-oxo-5,7-dihydroindolo[1,2-a]quinazolin-10-yl)piperidin-1-yl)methyl)cyclohexyl)-1H-1,2,3-triazol-1-yl)-3,3-dimethylbutanoyl)-4-hydroxy-N-((S)-5-(4-methylthiazol-5-yl)-2,3-dihydro-1H-inden-1-yl)pyrrolidine-2-carboxamide] | 100 to 500 nM | < 50% | < 100 nM | 70 to 90% |
| Cc1ncoc1-c1ccc([C@H](C)NC(=O)[C@@H]2C[C@@H](O)CN2C(=O)[C@@H](n2cc([C@H]3CC[C@H](CN4CCN(c5ccc6c(c5)-n5c(nc(=O)c7c(Cl)cccc75)C6(C)C)CC4)CC3)nn2)C(C)(C)C)cc1 [Compound B126, (2S,4R)-1-((S)-2-(4-((1r,4S)-4-((4-(4-chloro-7,7-dimethyl-5-oxo-5,7-dihydroindolo[1,2-a]quinazolin-10-yl)piperazin-1-yl)methyl)cyclohexyl)-1H-1,2,3-triazol-1-yl)-3,3-dimethylbutanoyl)-4-hydroxy-N-((S)-1-(4-(4-methyloxazol-5-yl)phenyl)ethyl)pyrrolidine-2-carboxamide] | < 100 nM | 50 to 69% | < 100 nM | > 90% |
| C[C@H](NC(=O)[C@@H]1C[C@@H](O)CN1C(=O)[C@@H](n1cc([C@H]2CC[C@H](CN3CCN(c4ccc5c(c4)-n4c(nc(=O)c6c(Cl)cccc64)C5(C)C)CC3)CC2)nn1)C(C)(C)C)c1ccc(-c2ccn[nH]2)cc1 [Compound B127, (2S,4R)-N-((S)-1-(4-(1H-pyrazol-5-yl)phenyl)ethyl)-1-((S)-2-(4-((1r,4S)-4-((4-(4-chloro-7,7-dimethyl-5-oxo-5,7-dihydroindolo[1,2-a]quinazolin-10-yl)piperazin-1-yl)methyl)cyclohexyl)-1H-1,2,3-triazol-1-yl)-3,3-dimethylbutanoyl)-4-hydroxypyrrolidine-2-carboxamide] | < 100 nM | 70 to 90% | < 100 nM | > 90% |

Results, then the molecule that gave them:

| DC50 [1] | Dmax [1] | DC50 [2] | Dmax [2] | SMILES |
| --- | --- | --- | --- | --- |
| 100 to 500 nM | < 50% | < 100 nM | 70 to 90% | Cc1ncsc1-c1ccc(C2(NC(=O)[C@@H]3C[C@@H](O)CN3C(=O)[C@@H](n3cc([C@H]4CC[C@H](CN5CCC(c6ccc7c(c6)-n6c(nc(=O)c8c(Cl)cccc86)C7(C)C)CC5)CC4)nn3)C(C)(C)C)CN(C)C2)cc1 [Compound B124, (2S,4R)-1-((S)-2-(4-((1r,4S)-4-((4-(4-chloro-7,7-dimethyl-5-oxo-5,7-dihydroindolo[1,2-a]quinazolin-10-yl)piperidin-1-yl)methyl)cyclohexyl)-1H-1,2,3-triazol-1-yl)-3,3-dimethylbutanoyl)-4-hydroxy-N-(1-methyl-3-(4-(4-methylthiazol-5-yl)phenyl)azetidin-3-yl)pyrrolidine-2-carboxamide] |
| < 100 nM | 70 to 90% | < 100 nM | > 90% | C[C@H](NC(=O)[C@@H]1C[C@@H](O)CN1C(=O)[C@@H](n1cc([C@H]2CC[C@H](CN3CCN(c4ccc5c(c4)-n4c(nc(=O)c6c(Cl)cccc64)C5(C)C)CC3)CC2)nn1)C(C)(C)C)c1ccc(-c2ccnn2C)cc1 [Compound B125, (2S,4R)-1-((S)-2-(4-((1r,4S)-4-((4-(4-chloro-7,7-dimethyl-5-oxo-5,7-dihydroindolo[1,2-a]quinazolin-10-yl)piperazin-1-yl)methyl)cyclohexyl)-1H-1,2,3-triazol-1-yl)-3,3-dimethylbutanoyl)-4-hydroxy-N-((S)-1-(4-(1-methyl-1H-pyrazol-5-yl)phenyl)ethyl)pyrrolidine-2-carboxamide] |
| < 100 nM | 70 to 90% | < 100 nM | > 90% | C#Cc1ccc([C@H](C)NC(=O)[C@@H]2C[C@@H](O)CN2C(=O)[C@H](C(C)C)n2cc([C@H]3CC[C@H](CN4CCC(c5ccc6c(c5)-n5c(nc(=O)c7c(Cl)cccc75)C6(C)C)CC4)CC3)nn2)cc1 [Compound B128, (2S,4R)-1-((S)-2-(4-((1r,4S)-4-((4-(4-chloro-7,7-dimethyl-5-oxo-5,7-dihydroindolo[1,2-a]quinazolin-10-yl)piperidin-1-yl)methyl)cyclohexyl)-1H-1,2,3-triazol-1-yl)-3-methylbutanoyl)-N-((S)-1-(4-ethynylphenyl)ethyl)-4-hydroxypyrrolidine-2-carboxamide] |
| < 100 nM | 70 to 90% | < 100 nM | > 90% | Cc1ncsc1-c1ccc([C@H](CN2CCOCC2)NC(=O)[C@@H]2C[C@@H](O)CN2C(=O)[C@H](C(C)C)n2cc([C@H]3CC[C@H](CN4CCN(c5ccc6c(c5)-n5c(nc(=O)c7c(Cl)cccc75)C6(C)C)CC4)CC3)nn2)cc1 [Compound B129, (2S,4R)-1-((S)-2-(4-((1r,4S)-4-((4-(4-chloro-7,7-dimethyl-5-oxo-5,7-dihydroindolo[1,2-a]quinazolin-10-yl)piperazin-1-yl)methyl)cyclohexyl)-1H-1,2,3-triazol-1-yl)-3-methylbutanoyl)-4-hydroxy-N-((R)-1-(4-(4-methylthiazol-5-yl)phenyl)-2-morpholinoethyl)pyrrolidine-2-carboxamide] |
